Reference: patent publication US6956034B2, “Oxazin(ethyl)one compounds used as fungicides” (BASF Aktiengesellschaft, priority 2001, dated 2005)

Legend:
[1] = system: mildew of cucumbers (Sphaerotheca fuliginea); experiment: Protective activity against mildew of cucumbers; type: in vivo; settings: cucumber seedlings; for percentage of infection of leaves at the prescribed concentration of active compound: sprayed 20 h before inoculation, 7 days, untreated 90
Experimental: The active compounds were used as aqueous preparations of active compounds which contained the active compound in a concentration of 250 ppm, 63 ppm, 16 ppm and 4 ppm, respectively. The aqueous preparation of active compound was prepared by diluting a stock solution of 10% by weight of active compound, 63% by weight of cyclohexanone and 27% by weight of emulsifier (20 parts by weight of Nekanil® LN (Lutensol® AP6, wetting agent having emulsifying and dispersing action based on ethoxylated alkylphenols) and 10 parts by weight of Wettol® EM (nonionic emulsifier based on ethoxylated castor oil)) with water in the amount required for the desired concentration.
Leaves of cucumber seedlings of the cultivar “Chinesische Schlange” which had been grown in pots were, at the cotyledon stage, sprayed to runoff point with an aqueous preparation of active compound. 20 hours after the spray coating had dried on, the plants were inoculated with an aqueous spore suspension of mildew of cucumbers (Sphaerotheca fuliginea). The plants were then cultivated in a greenhouse at 20-24° C. and 60-80% relative atmospheric humidity for 7 days. The extent of the mildew development was then determined visually in % infection of the cotyledon area.

[2] = system: mildew of wheat (Erysiphe [syn. Blumeria] graminis forma specialis tritici); experiment: Protective activity against mildew of wheat; type: in vivo; settings: wheat seedlings, sprayed 24 h before inoculation, 7 days, untreated 85
Experimental: The active compounds were used as aqueous preparations of active compounds which contained the active compound in a concentration of 250 ppm, 63 ppm, 16 ppm and 4 ppm, respectively. The aqueous preparation of active compound was prepared by diluting a stock solution of 10% by weight of active compound, 63% by weight of cyclohexanone and 27% by weight of emulsifier (20 parts by weight of Nekanil® LN (Lutensol® AP6, wetting agent having emulsifying and dispersing action based on ethoxylated alkylphenols) and 10 parts by weight of Wettol® EM (nonionic emulsifier based on ethoxylated castor oil)) with water in the amount required for the desired concentration. The first fully developed leaves of the wheat seedlings of the variety “Kanzler” which had been grown in pots were sprayed to runoff point with an aqueous preparation of active compound prepared from a stock solution containing 10% of active compound, […]. 24 hours after the spray coating had dried on, the plants were inoculated with an aqueous spore suspension of mildew of wheat (Erysiphe [syn. Blumeria] graminis forma specialis. tritici). The plants were then cultivated in a greenhouse at 20-24° C. and 60-90% relative atmospheric humidity. After 7 days the extent of the mildew development was determined visually in % infection of the leaves.

| Structure (SMILES) | percentage of infection of leaves at the prescribed concentration of active compound ([1]; 16 ppm) | percentage of infection of leaves at the prescribed concentration of active compound ([1]; 63 ppm) | percentage of infection of leaves at the prescribed concentration of active compound ([1]; 250 ppm) | percentage of infection of leaves at the prescribed concentration of active compound ([2]; 16 ppm) | percentage of infection of leaves at the prescribed concentration of active compound ([2]; 63 ppm) | percentage of infection of leaves at the prescribed concentration of active compound ([2]; 250 ppm) | infection of the cotyledon area ([1]; 4 ppm, untreated plants 90% infected) |
| --- | --- | --- | --- | --- | --- | --- | --- |
| CCCCn1c(=NOCCC)oc2ccc(I)cc2c1=O [I - A1.28] | 0% | 0% | 0% | 0% | 0% | 0% | – |
| CCCn1c(=NOCC2CC2)oc2ccc(I)cc2c1=O [I - A1.137] | 0% | 0% | 0% | 0% | 0% | 0% | – |
| CCCCn1c(=NOC(C)C)oc2ccc(I)cc2c1=O [I - A1.138] | 0% | 0% | 0% | 0% | 0% | 0% | – |
| CCCn1c(=NOC(C)C)oc2ccc(I)cc2c1=O [I - A1.139] | 0% | 0% | 0% | 0% | 0% | 0% | – |
| CCON=c1oc2ccc(I)cc2c(=O)n1CC1CC1 [I - A1.72] | 0% | 0% | 0% | 0% | 0% | 0% | – |
| CCCn1c(=NOC)oc2ccc(C)cc2c1=O [I - A1.132] | 10% | 10% | 0% | – | – | – | – |
| CCCON=c1oc2ccc(I)cc2c(=O)n1CC1CC1 [I - A1.76] | 0% | 0% | 0% | 0% | 0% | 0% | – |
| O=c1c2cc(I)ccc2oc(=NOCC2CC2)n1CC1CC1 [I - A1.135] | 3% | 0% | 0% | 5% | 0% | 0% | – |
| CCCCn1c(=NOCC2CC2)oc2ccc(I)cc2c1=O [I - A1.136] | 0% | 0% | 0% | 0% | 0% | 0% | – |
| CCCn1c(=NOC)oc2ccc(I)cc2c1=O [I - A1.4] | 0% | 0% | 0% | 0% | 0% | 0% | – |
| CCCn1c(=NOC)oc2ccc(Cl)cc2c1=O [I - A1.2] | 0% | 0% | 0% | 0% | 0% | 0% | – |
| CCCCn1c(=NOCC)oc2ccc(I)cc2c1=O [I - A1.24] | 0% | 0% | 0% | 0% | 0% | 0% | – |
| CCCn1c(=NOC)oc2ccc(OC)cc2c1=O [I - A1.133] | 10% | 5% | 0% | 20% | 0% | 0% | – |
| CCCn1c(=NOCC)oc2ccc(I)cc2c1=O [I - A1.8] | 0% | 0% | 0% | 0% | 0% | 0% | – |
| CC(C)ON=c1oc2ccc(I)cc2c(=O)n1CC1CC1 [I - A1.134] | 0% | 0% | 0% | 0% | 0% | 0% | – |
| CCCn1c(=NOC)oc2ccc(Cl)cc2c1=O [Compound I - A1.2, O-Methyl (6-chloro-3-propyl-4H-1,3-benz[e]oxazin-4(3H)-one)-2-oxime] | – | – | – | – | – | – | no infection |
| CON=c1oc2ccc(I)cc2c(=O)n1CC1CC1 [I - A1.68] | 0% | 0% | 0% | 0% | 0% | 0% | – |
